Measured values from the NIST ThermoML archive (doi:10.1021/je900387e).
± gives the expanded uncertainty stated by the source.

Experiment: xn = mol fraction of the nth substance listed
Conditions: Liquid, Pycnometric method

CCCCCl [1-chlorobutane] + O=C=O
Conditions | mass density [kg/m3]
313.1 K, 10970 kPa, x1 = 0.0744 | 828 ± 4
313.1 K, 11030 kPa, x1 = 0.0243 | 763 ± 4
313.1 K, 11220 kPa, x1 = 0.0483 | 800 ± 4
313.1 K, 11230 kPa, x1 = 0.0981 | 855 ± 4
313.1 K, 11350 kPa, x1 = 0.0744 | 833 ± 4
313.1 K, 11500 kPa, x1 = 0.1488 | 870 ± 4
313.1 K, 11510 kPa, x1 = 0.0483 | 806 ± 4
313.1 K, 11780 kPa, x1 = 0.0744 | 839 ± 4
313.1 K, 11810 kPa, x1 = 0.0483 | 811 ± 4
313.1 K, 11820 kPa, x1 = 0.0981 | 862 ± 4
313.1 K, 12110 kPa, x1 = 0.0483 | 816 ± 4
313.1 K, 12170 kPa, x1 = 0.1488 | 875 ± 4
313.1 K, 12220 kPa, x1 = 0.0744 | 844 ± 4
313.1 K, 12430 kPa, x1 = 0.0744 | 847 ± 4
313.1 K, 12440 kPa, x1 = 0.0981 | 869 ± 4
313.1 K, 12540 kPa, x1 = 0.1488 | 878 ± 4
313.1 K, 12780 kPa, x1 = 0.0981 | 872 ± 4
313.1 K, 12890 kPa, x1 = 0.1488 | 880 ± 4
313.1 K, 13000 kPa, x1 = 0.0981 | 874 ± 4
313.1 K, 13240 kPa, x1 = 0.1488 | 883 ± 4
313.1 K, 13660 kPa, x1 = 0.1488 | 885 ± 4
313.1 K, 14020 kPa, x1 = 0.1488 | 888 ± 4
313.1 K, 14460 kPa, x1 = 0.1488 | 890 ± 4
313.1 K, 14830 kPa, x1 = 0.1488 | 893 ± 4
314.5 K, 8320 kPa, x1 = 0.0243 | 495 ± 4
314.5 K, 8330 kPa, x1 = 0.0243 | 501 ± 4
314.5 K, 8360 kPa, x1 = 0.0243 | 510 ± 4
314.5 K, 8390 kPa, x1 = 0.0243 | 522 ± 4
314.5 K, 8430 kPa, x1 = 0.0243 | 531 ± 4
314.5 K, 8460 kPa, x1 = 0.0243 | 541 ± 4
314.5 K, 8490 kPa, x1 = 0.0243 | 552 ± 4
314.5 K, 8530 kPa, x1 = 0.0243 | 562 ± 4
314.5 K, 8590 kPa, x1 = 0.0243 | 575 ± 4
314.5 K, 8650 kPa, x1 = 0.0243 | 588 ± 4
314.5 K, 8720 kPa, x1 = 0.0243 | 602 ± 4
314.5 K, 8820 kPa, x1 = 0.0243 | 617 ± 4
314.5 K, 8930 kPa, x1 = 0.0243 | 632 ± 4
314.5 K, 9080 kPa, x1 = 0.0243 | 648 ± 4
314.5 K, 9270 kPa, x1 = 0.0243 | 664 ± 4
314.5 K, 9480 kPa, x1 = 0.0243 | 680 ± 4
314.5 K, 9790 kPa, x1 = 0.0243 | 698 ± 4
314.5 K, 10150 kPa, x1 = 0.0243 | 715 ± 4
314.5 K, 10480 kPa, x1 = 0.0243 | 729 ± 4
314.5 K, 10730 kPa, x1 = 0.0243 | 738 ± 4
314.5 K, 11030 kPa, x1 = 0.0243 | 748 ± 4
314.5 K, 11370 kPa, x1 = 0.0243 | 758 ± 4
314.5 K, 11740 kPa, x1 = 0.0243 | 767 ± 4
317.9 K, 7340 kPa, x1 = 0.1488 | 805 ± 4
317.9 K, 7730 kPa, x1 = 0.0981 | 761 ± 4
317.9 K, 7740 kPa, x1 = 0.1488 | 811 ± 4
317.9 K, 7900 kPa, x1 = 0.0981 | 766 ± 4
317.9 K, 8050 kPa, x1 = 0.0744 | 713 ± 4
317.9 K, 8060 kPa, x1 = 0.1488 | 815 ± 4
317.9 K, 8090 kPa, x1 = 0.0981 | 771 ± 4
317.9 K, 8230 kPa, x1 = 0.0744 | 720 ± 4
317.9 K, 8310 kPa, x1 = 0.0981 | 777 ± 4
317.9 K, 8360 kPa, x1 = 0.0744 | 727 ± 4
317.9 K, 8450 kPa, x1 = 0.1488 | 820 ± 4
317.9 K, 8520 kPa, x1 = 0.0744 | 733 ± 4
317.9 K, 8530 kPa, x1 = 0.0483 | 630 ± 4
317.9 K, 8530 kPa, x1 = 0.0981 | 782 ± 4
317.9 K, 8560 kPa, x1 = 0.0243 | 417 ± 4
317.9 K, 8590 kPa, x1 = 0.0243 | 423 ± 4
317.9 K, 8590 kPa, x1 = 0.0483 | 636 ± 4
317.9 K, 8630 kPa, x1 = 0.0243 | 433 ± 4
317.9 K, 8670 kPa, x1 = 0.0243 | 443 ± 4
317.9 K, 8690 kPa, x1 = 0.0483 | 646 ± 4
317.9 K, 8690 kPa, x1 = 0.0744 | 740 ± 4
317.9 K, 8720 kPa, x1 = 0.0243 | 453 ± 4
317.9 K, 8750 kPa, x1 = 0.0243 | 464 ± 4
317.9 K, 8770 kPa, x1 = 0.0981 | 787 ± 4
317.9 K, 8790 kPa, x1 = 0.0243 | 473 ± 4
317.9 K, 8810 kPa, x1 = 0.0483 | 656 ± 4
317.9 K, 8830 kPa, x1 = 0.1488 | 823 ± 4
317.9 K, 8850 kPa, x1 = 0.0243 | 484 ± 4
317.9 K, 8880 kPa, x1 = 0.0744 | 746 ± 4
317.9 K, 8890 kPa, x1 = 0.0243 | 496 ± 4
317.9 K, 8940 kPa, x1 = 0.0243 | 507 ± 4
317.9 K, 8940 kPa, x1 = 0.0483 | 667 ± 4
317.9 K, 8990 kPa, x1 = 0.0243 | 520 ± 4
317.9 K, 9050 kPa, x1 = 0.0981 | 793 ± 4
317.9 K, 9060 kPa, x1 = 0.0243 | 534 ± 4
317.9 K, 9080 kPa, x1 = 0.0483 | 678 ± 4
317.9 K, 9110 kPa, x1 = 0.0744 | 753 ± 4
317.9 K, 9140 kPa, x1 = 0.0243 | 549 ± 4
317.9 K, 9200 kPa, x1 = 0.0483 | 689 ± 4
317.9 K, 9230 kPa, x1 = 0.0243 | 565 ± 4
317.9 K, 9240 kPa, x1 = 0.1488 | 828 ± 4
317.9 K, 9340 kPa, x1 = 0.0243 | 582 ± 4
317.9 K, 9350 kPa, x1 = 0.0981 | 799 ± 4
317.9 K, 9360 kPa, x1 = 0.0744 | 760 ± 4
317.9 K, 9460 kPa, x1 = 0.0243 | 599 ± 4
317.9 K, 9490 kPa, x1 = 0.0483 | 701 ± 4
317.9 K, 9580 kPa, x1 = 0.0243 | 615 ± 4
317.9 K, 9600 kPa, x1 = 0.0744 | 766 ± 4
317.9 K, 9650 kPa, x1 = 0.0981 | 804 ± 4
317.9 K, 9660 kPa, x1 = 0.1488 | 832 ± 4
317.9 K, 9740 kPa, x1 = 0.0243 | 630 ± 4
317.9 K, 9770 kPa, x1 = 0.0483 | 713 ± 4
317.9 K, 9840 kPa, x1 = 0.0243 | 639 ± 4
317.9 K, 9890 kPa, x1 = 0.0744 | 773 ± 4
317.9 K, 9950 kPa, x1 = 0.0243 | 647 ± 4
317.9 K, 10010 kPa, x1 = 0.0981 | 810 ± 4
317.9 K, 10030 kPa, x1 = 0.0243 | 654 ± 4
317.9 K, 10090 kPa, x1 = 0.0483 | 725 ± 4
317.9 K, 10090 kPa, x1 = 0.1488 | 836 ± 4
317.9 K, 10220 kPa, x1 = 0.0744 | 780 ± 4
317.9 K, 10350 kPa, x1 = 0.0483 | 734 ± 4
317.9 K, 10350 kPa, x1 = 0.0981 | 815 ± 4
317.9 K, 10560 kPa, x1 = 0.0744 | 787 ± 4
317.9 K, 10580 kPa, x1 = 0.1488 | 841 ± 4
317.9 K, 10650 kPa, x1 = 0.0483 | 742 ± 4
317.9 K, 10750 kPa, x1 = 0.0981 | 822 ± 4
317.9 K, 10940 kPa, x1 = 0.0744 | 794 ± 4
317.9 K, 10970 kPa, x1 = 0.0483 | 752 ± 4
317.9 K, 11090 kPa, x1 = 0.1488 | 847 ± 4
317.9 K, 11180 kPa, x1 = 0.0981 | 827 ± 4
317.9 K, 11340 kPa, x1 = 0.0483 | 761 ± 4
317.9 K, 11370 kPa, x1 = 0.0744 | 802 ± 4
317.9 K, 11620 kPa, x1 = 0.1488 | 851 ± 4
317.9 K, 11670 kPa, x1 = 0.0981 | 834 ± 4
317.9 K, 11740 kPa, x1 = 0.0483 | 770 ± 4
317.9 K, 11860 kPa, x1 = 0.0744 | 810 ± 4
317.9 K, 11940 kPa, x1 = 0.1488 | 853 ± 4
317.9 K, 12140 kPa, x1 = 0.0981 | 839 ± 4
317.9 K, 12220 kPa, x1 = 0.0483 | 780 ± 4
317.9 K, 12240 kPa, x1 = 0.1488 | 856 ± 4
317.9 K, 12370 kPa, x1 = 0.0744 | 817 ± 4
317.9 K, 12520 kPa, x1 = 0.1488 | 858 ± 4
317.9 K, 12690 kPa, x1 = 0.0981 | 846 ± 4
317.9 K, 12740 kPa, x1 = 0.0483 | 790 ± 4
317.9 K, 12850 kPa, x1 = 0.1488 | 861 ± 4
317.9 K, 12930 kPa, x1 = 0.0744 | 825 ± 4
317.9 K, 13140 kPa, x1 = 0.1488 | 863 ± 4
317.9 K, 13250 kPa, x1 = 0.0981 | 852 ± 4
317.9 K, 13320 kPa, x1 = 0.0483 | 800 ± 4
317.9 K, 13440 kPa, x1 = 0.1488 | 865 ± 4
317.9 K, 13510 kPa, x1 = 0.0744 | 833 ± 4
317.9 K, 13620 kPa, x1 = 0.0483 | 805 ± 4
317.9 K, 13800 kPa, x1 = 0.1488 | 868 ± 4
317.9 K, 13830 kPa, x1 = 0.0981 | 859 ± 4
317.9 K, 13950 kPa, x1 = 0.0483 | 811 ± 4
317.9 K, 14180 kPa, x1 = 0.0744 | 841 ± 4
317.9 K, 14190 kPa, x1 = 0.1488 | 871 ± 4
317.9 K, 14300 kPa, x1 = 0.0483 | 816 ± 4
317.9 K, 14480 kPa, x1 = 0.1488 | 873 ± 4
317.9 K, 14530 kPa, x1 = 0.0981 | 865 ± 4
317.9 K, 14860 kPa, x1 = 0.1488 | 875 ± 4
317.9 K, 14910 kPa, x1 = 0.0744 | 849 ± 4
317.9 K, 15220 kPa, x1 = 0.0981 | 872 ± 4
322.7 K, 7900 kPa, x1 = 0.1488 | 782 ± 4
322.7 K, 8140 kPa, x1 = 0.1488 | 786 ± 4
322.7 K, 8330 kPa, x1 = 0.0981 | 728 ± 4
322.7 K, 8380 kPa, x1 = 0.1488 | 789 ± 4
322.7 K, 8510 kPa, x1 = 0.0981 | 734 ± 4
322.7 K, 8620 kPa, x1 = 0.0243 | 328 ± 4
322.7 K, 8620 kPa, x1 = 0.0981 | 739 ± 4
322.7 K, 8630 kPa, x1 = 0.0744 | 669 ± 4
322.7 K, 8670 kPa, x1 = 0.1488 | 794 ± 4
322.7 K, 8690 kPa, x1 = 0.0243 | 336 ± 4
322.7 K, 8740 kPa, x1 = 0.0744 | 675 ± 4
322.7 K, 8750 kPa, x1 = 0.0243 | 343 ± 4
322.7 K, 8780 kPa, x1 = 0.0981 | 744 ± 4
322.7 K, 8810 kPa, x1 = 0.0243 | 351 ± 4
322.7 K, 8860 kPa, x1 = 0.0243 | 360 ± 4
322.7 K, 8860 kPa, x1 = 0.0744 | 683 ± 4
322.7 K, 8920 kPa, x1 = 0.0243 | 368 ± 4
322.7 K, 8940 kPa, x1 = 0.0981 | 749 ± 4
322.7 K, 8970 kPa, x1 = 0.1488 | 798 ± 4
